One test concerns CD22. Description: CD22 cell surface expression after chidamide treatment, flow cytometry. To be noted: chidamide 0.25 or 0.5 µM for 7 days; Ramos, TMD8, and SU-DHL-4 cell lines. The class given is cell-based. How it is done:
Chidamide (Selleckchem) was dissolved in dimethyl sulfoxide (DMSO) according to the manufacturer's instructions. Cells were treated with chidamide (0.25 or 0.5 µM) for 7 days at 37°C in a 5% carbon dioxide-gassed, humidified incubator. On day 3, cells were centrifuged, and fresh medium containing the corresponding concentrations of chidamide was added. The control group was treated with equal volumes of DMSO.
CD22 cell surface expression after chidamide treatment was measured by flow cytometry. hLL2-C220 and B12 antibodies, followed by Alexa Fluor 488 anti-human secondary antibodies (Life Technologies, Thermo Fisher Scientific) or allophycocyanin anti-human secondary antibodies (BioLegend), were used for CD22 detection. Cells were analyzed using a CytoFLEX Flow Cytometer (Beckman Coulter), and data were analyzed with FlowJo software version 10.8.1 (BD Biosciences).

A further test has as its system GRANTA-519. Description: In vitro cytotoxicity, GRANTA-519. It is filed as cell-based, human. As to conditions: GRANTA-519 (MCL), CD22-positive; mean ± SEM.
For the next test, the system named is DO HH-2. Description: In vitro cytotoxicity, DO HH-2. As to conditions: DO HH-2 (FL), CD22-positive; mean ± SEM. The class given is cell-based, human.
Another test concerns KM-H2. Description: In vitro cytotoxicity, KM-H2. It is filed as cell-based, human. To be noted: KM-H2 (HL), CD22-negative; mean ± SEM.
The next test deals with MEC-2. Kind of test: In vitro cytotoxicity, MEC-2. The class given is cell-based, human. As to conditions: MEC-2 (CLL), CD22-positive; mean ± SEM.
A further test has as its system SEM cells. Kind of test: In vitro cytotoxicity, SEM. It is filed as cell-based, human. To be noted: SEM (B-ALL), CD22-positive; mean ± SEM.
Test [1] concerns KARPAS-299. Kind of test: In vitro cytotoxicity, KARPAS-299. The class given is cell-based, human. To be noted: KARPAS-299 (ALCL), CD22-negative; mean ± SEM.
The subject of the next test is Ramos cells. Description: DNA interstrand crosslinks, single cell gel electrophoresis (Comet) assay, Ramos. It is filed as cell-based, human. The procedure:
(§1) Quantification of in vitro DNA interstrand crosslinks (ICLs) was performed using the single cell gel electrophoresis (Comet) assay.
(§2) DNA ICLs were measured using a modification of the single-cell gel electrophoresis (Comet) assay, and crosslinking was expressed as the percentage decrease in Olive tail moment (OTM) versus control irradiated cells. […] Immediately after the drug incubation period, a low level of ICLs (3%) was observed, which increased over time to near peak levels (≈50%) at 12 hours and persisted up to 48 hours. […] In this cell line, SG3199 produced a high level of ICL (≈50%), similar to that observed in the Ramos cell line.

The subject of a further test is SUP-T1. Kind of test: In vitro cytotoxicity, SUP-T1. The class given is cell-based, human. As to conditions: SUP-T1 (T-LL), CD22-negative; mean ± SEM.
Test [2] deals with KARPAS-299. Kind of test: DNA interstrand crosslinks, single cell gel electrophoresis (Comet) assay, KARPAS-299. The class given is cell-based, human. To be noted: KARPAS-299 (CD22-negative), over 48 hours following a 2-hour treatment. How it is done: as §1, §2
A further test concerns REH. Kind of test: In vitro cytotoxicity, REH. The class given is cell-based, human. To be noted: REH (B-ALL), CD22-positive; mean ± SEM.
The next test concerns NALM-6. Kind of test: In vitro cytotoxicity, NALM-6. It is filed as cell-based, human. To be noted: NALM-6 (B-ALL), CD22-positive; mean ± SEM.
The test system of the next test is Daudi. Kind of test: In vitro cytotoxicity, Daudi. The class given is cell-based, human. As to conditions: Daudi (BL), CD22-positive; mean ± SEM.
The next test concerns NAMALWA. Description: In vitro cytotoxicity, NAMALWA. It is filed as cell-based, human. To be noted: NAMALWA (BL), CD22-positive; mean ± SEM.
The next test has as its system Ramos. Description: In vitro cytotoxicity, Ramos. The class given is cell-based, human. As to conditions: Ramos (BL), CD22-positive; mean ± SEM.

Turning to `Nc1cc(F)ccc1NC(=O)c1ccc(CNC(=O)/C=C/c2cccnc2)cc1` [chidamide], the “increase of CD22 expression compared with DMSO-treated cells (MFI fold change)” value in the test on CD22 was “up to 2.4 times”.

With `COc1cc2c(cc1OCCCCCOc1cc3c(cc1OC)C(=O)N1C=C(C)C[C@H]1C=N3)N=C[C@@H]1CC(C)=CN1C2=O` [SG3199], the half-inhibitory concentration (IC50) in the test on GRANTA-519 came out at 0.002 nM; with DO HH-2, 0.007 ± 0.001 nM; with KM-H2, 0.036 ± 0.005 nM; in the test on MEC-2, 0.033 ± 0.009 nM; in the test with SEM cells it was 0.005 ± 0.002 nM; in the test on KARPAS-299 [1], 0.025 ± 0.001 nM. In addition, the IC50 with SUP-T1 was found to be 0.026 ± 0.005 nM; in the test on REH, 0.001 nM; in the test with NALM-6 it was 0.002 nM; in the test with Daudi it was 0.008 ± 0.001 nM; in the test on NAMALWA it was 0.014 ± 0.001 nM; with Ramos, 0.016 ± 0.001 nM. Also, the “DNA ICLs, percentage decrease in Olive tail moment (OTM) versus control irradiated cells” value with Ramos cells (2-hour exposure, immediately after the drug incubation period) is recorded as 46%; in the test with Ramos cells (after 2 hours following drug incubation) it was 56%; in the test with KARPAS-299 [2] it was “≈ 50%”. In the test with Ramos cells (following 2-hour exposure), the “persistence of DNA ICLs” value is listed as “up to 48 hours”.

These data come from EP4410314A1, “COMBINATION THERAPY COMPRISING ANTI-CD22 ANTIBODY-DRUG CONJUGATE AND IRAK1 INHIBITOR” (ADC Therapeutics SA, priority 2023, dated 2024).
